System: G. duodenalis BRIS/91/HEPU/1279
Assay: Primary Giardia screen at 10 µM (live-cell imaging, automated counting)
Type: cell-based, Giardia duodenalis
Settings: for % Inhibition n=1 48h / % Inhibition n=1 24h: first singlicate assay; for % Inhibition n=2 24h / % Inhibition n=2 48h: re-assessment
In short: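 Compounds were tested once each at 10 μM final (0.2% DMSO) in culture medium under 3% O2, 5% CO2 in N2. Growth was read at 24 and 48 h by live-cell imaging with automated counting, and inhibition expressed as percent growth versus 0.2% DMSO vehicle after media-only background subtraction.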

Row | SMILES | % Inhibition n=1 48h | further results
1 | Cc1ccc(C)c(S(=O)(=O)Nc2ccc3nnc(-c4ccccc4)n3n2)c1 [SN00795461] | 0.0% | –
2 | Cc1cccc(NC(=O)Cn2c(=O)n(-c3ccc(F)cc3)c(=O)c3c(C)c(C(=O)N(C)C)sc32)c1 [SN00794395] | 21.9% | –
3 | CCOC(=O)c1sc2ncnc(Nc3cn[nH]c3)c2c1C [SN00777183] | 42.7% | Average % Inhibition 24h: 0.0%; % Inhibition n=1 24h: 0.1%; % Inhibition n=2 24h: 0.0%; Average % Inhibition 48h: 30.8%; % Inhibition n=2 48h: 18.9%
4 | CCN(CC)C(=O)CN1C(=O)CN=C(c2ccc(OC)cc2)c2c1sc1c2CCCC1 [SN00791881] | 0.0% | –
5 | COc1ccc(CCNC(=O)C2c3ccccc3C(=O)N2Cc2ccc(C)cc2)cc1OC (stereo not drawn) [SN00794542] | 6.3% | –
6 | CC1CCc2nn(CC(=O)NC(C)c3ccccc3)cc2C1 (stereo not drawn) [SN00785614] | 0.0% | –
7 | Cc1ccc(NC(=O)Cn2c(=O)nc(NC3CCCC3)c3ccccc32)cc1C [SN00797075] | 0.0% | –
8 | CCn1cc(CN2CCCN(C(=O)c3cc(C4CC4)on3)CC2)cn1 [SN00778709] | 0.0% | –
9 | CSc1ccc(NC(=O)N2C[C@@H]3C[C@H]2C[C@@H]3NC(=O)c2cccs2)cc1 (relative stereo) [SN00800991] | 17.8% | –
10 | Cc1ccc(NC(=O)Cn2c(=O)n(Cc3ccc4c(c3)OCO4)c(=O)c3ncccc32)cc1 [SN00789565] | 0.0% | –
11 | Cc1ccccc1C1CCN(C(=O)C2CCCC2)C1 (stereo not drawn) [SN00782733] | 7.3% | –
12 | O=C(Cn1nnc(-c2cccs2)n1)c1ccc(Cl)s1 [SN00775834] | 2.4% | –
13 | CSc1ccc(CNC(=O)C2CCN(S(=O)(=O)c3ccc(-c4ccn[nH]4)o3)CC2)cc1 [SN00790551] | 11.7% | –
14 | Cc1ccc(-c2cc3nc(C)cc(N4CCC(C(=O)NCCCN5CCCC5)CC4)n3n2)cc1 [SN00795048] | 16.1% | –
15 | Cc1ccc(C)c(OC2CCN(c3ncnc4nc[nH]c34)CC2)c1 [SN00780571] | 12.5% | –
16 | CCc1ccc(C2=Nc3ncnn3/C2=N/Cc2ccc(F)cc2)cc1 [SN00793051] | 1.3% | –
17 | COc1ccccc1NC(=O)N1Cc2c(sc3c2CCN(C)C3)-n2cccc2C1C (stereo not drawn) [SN00791542] | 24.5% | –
18 | CCOc1ccc2nc(C(=O)N3CCN(c4cccc(C)c4C)CC3)cn2n1 [SN00799885] | 9.3% | –
19 | Nc1nc(N2CCN(C(=O)c3ccco3)CC2)ncc1C(=O)Nc1ccccc1 [SN00798744] | 0.0% | –
20 | CC1CCN(c2nc(C(=O)NCCc3ccncc3)nc3c2cnn3C)CC1 [SN00800416] | 9.4% | –
21 | O=C(NCC1CCCO1)Nc1ccc2sc(NS(=O)(=O)c3ccccc3)nc2c1 (stereo not drawn) [SN00797600] | 23.5% | –
22 | COC(=O)C(C)n1cnc2c(nnn2Cc2ccc(C)cc2)c1=O (stereo not drawn) [SN00802538] | 3.2% | –
23 | COc1ccccc1N1CCN(C(=O)c2ccc3[nH]c(C)c(C)c3c2)CC1 [SN00775216] | 36.6% | –
24 | Cc1ccc(C)c(NC(=O)Cc2nc(Cn3cnc([N+](=O)[O-])c3)cs2)c1 [SN00779996] | 47.9% | Average % Inhibition 24h: 8.5%; % Inhibition n=1 24h: 0.0%; % Inhibition n=2 24h: 16.9%; Average % Inhibition 48h: 59.9%; % Inhibition n=2 48h: 71.9%
25 | COc1ccc(N2C(=O)NC3CC2(C)Oc2ccc(OC)cc23)cc1 (stereo not drawn) [SN00784647] | 11.2% | –

Row | SMILES | % Inhibition n=1 48h | further results
26 | COc1ccc(CN2CCCN(C(=O)c3cn4ccc(C)cc4n3)CC2)cc1 [SN00771379] | 0.0% | –
27 | Cc1ccc(NC(=O)Cn2nnc(-c3nc(-c4ccncc4)no3)c2N)cc1 [SN00788097] | 7.5% | –
28 | NCC1CN(C2CC2)CCO1 (stereo not drawn) [SN00782004] | 23.7% | –
29 | O=C(CCN1CCC(c2n[nH]c(C3CC3)n2)CC1)Nc1ccccc1 [SN00772586] | 28.6% | –
30 | CCOC(=O)CNC(=O)N1Cc2c(C)nn(-c3ccccc3)c2-n2cccc2C1c1cccc(F)c1 (stereo not drawn) [SN00792341] | 8.0% | –
31 | O=C(NCc1ccco1)N1CC2C3CCC(C3)C21 (stereo not drawn) [SN00773389] | 2.6% | –
32 | NC(=O)C1=C(Nc2ccccc2)c2ccccc2S1(=O)=O [SN00786825] | 65.7% | Average % Inhibition 24h: 12.8%; % Inhibition n=1 24h: 25.7%; % Inhibition n=2 24h: 0.0%; Average % Inhibition 48h: 48.5%; % Inhibition n=2 48h: 31.3%
33 | Cc1nnc2n1CCN(C(=O)c1cnc(-c3ccccc3)s1)C2 [SN00807889] | 22.7% | –
34 | CCC(=O)N1CCc2c(sc3ncnc(N(C)C4CCN(C)CC4)c23)C1 [SN00801485] | 0.0% | –
35 | O=C(CS(=O)(=O)c1ccc2c(c1)S(=O)(=O)N=CN2)Nc1ccccc1 [SN00792172] | 15.6% | –
36 | COc1ccc(-n2ccn3c(CCC(=O)Nc4cc(C)cc(C)c4)nnc3c2=O)cc1 [SN00781639] | 16.2% | –
37 | Cc1nc(N(C)C)ncc1C(=O)O [SN00784957] | 3.0% | –
38 | CN(C)CCn1c(=O)c2[nH]cnc2n(C)c1=O [SN00785782] | 13.4% | –
39 | Cc1cc(C(F)(F)F)nn1CC(=O)Nc1cc(Oc2cccnc2)cc([N+](=O)[O-])c1 [SN00783379] | 22.1% | –
40 | C/C=C/c1ccc(OCC(=O)N2CCCN(C(=O)C3CCCC3)CC2)c(OC)c1 [SN00771493] | 16.5% | –
41 | Cc1nn(C)c2sc(C(=O)N3CCN(S(=O)(=O)c4ccc(Br)cc4)CC3)cc12 [SN00774390] | 10.6% | –
42 | O=C(c1cc(-c2cccnc2)[nH]n1)N1CCCC1 [SN00799309] | 13.7% | –
43 | CCOC(=O)c1ccsc1NC(=O)CN1CCNC(=O)CC1c1ccccc1 (stereo not drawn) [SN00772435] | 0.0% | –
44 | Cc1ccc(NC(=O)c2ccc(=O)n(CCN3CCOCC3)n2)cc1 [SN00793573] | 2.3% | –
45 | CCc1cc(C2CCCN2C(=O)Cc2ccccc2F)on1 (stereo not drawn) [SN00793836] | 10.7% | –
46 | Cc1nc(-c2ccc(C(=O)N3CCCC3C(=O)Nc3ccc(C)c(Cl)c3)cc2)no1 (stereo not drawn) [SN00793320] | 16.2% | –
47 | Cc1[nH]c(C)c(S(=O)(=O)N2CCCc3ccccc32)c1C(=O)N1CCCCC1 [SN00791426] | 0.0% | –
48 | CCCNC1=C(C(=O)Nc2ccc(F)cc2)S(=O)(=O)c2ccccc21 [SN00794224] | 46.5% | –
49 | CCn1c(=O)c(=O)n(CC(=O)NCc2ccc(SC)cc2)c2ccccc21 [SN00792977] | 16.0% | –
50 | O=C(NCCCN1CCN(c2ccccc2)CC1)c1noc2c1CCCCC2 [SN00788368] | 9.7% | –

Row | SMILES | % Inhibition n=1 48h | further results
51 | Cc1ccc(-c2[nH]c(-c3ccccc3)nc2S(=O)(=O)CC(=O)Nc2ccccc2)cc1 [SN00785272] | 11.7% | –
52 | COc1cc(-c2noc(-c3cc(C4CC4)n[nH]3)n2)cc(OC)c1OC [SN00779739] | 13.7% | –
53 | CCCNC(=O)N1CCN(Cc2nc3cccnc3n2-c2ccc(CC)cc2)CC1 [SN00796091] | 0.0% | –
54 | Cc1cnc(C(=O)N2CCN(C(=O)OC(C)(C)C)C(C)C2)cn1 (stereo not drawn) [SN00774718] | 0.0% | –
55 | CCn1nc(C(=O)NCCOc2ccccc2)cc1-c1cc(C)sc1C [SN00802783] | 0.0% | –
56 | NC(=O)C1CCN(C(=O)c2snc(C(=O)NCc3ccccc3)c2N)CC1 [SN00797750] | 8.9% | –
57 | COC(=O)C1=C(C)N(C(C)C)C(=O)C1(NC(=O)C1CCCCC1)C(F)(F)F (stereo not drawn) [SN00784094] | 0.0% | –
58 | CCc1nc(-c2cc(S(=O)(=O)NCc3ccc(F)c(Cl)c3)c(C)s2)cs1 [SN00798443] | 50.2% | Average % Inhibition 24h: 15.2%; % Inhibition n=1 24h: 16.9%; % Inhibition n=2 24h: 13.6%; Average % Inhibition 48h: 43.8%; % Inhibition n=2 48h: 37.5%
59 | O=S1(=O)CCC(Nc2nc(-c3ccccn3)nc3scc(-c4ccccc4)c23)C1 (stereo not drawn) [SN00776030] | 24.9% | –
60 | O=C(Nc1ccc(F)cc1)c1nc2nc(-c3cccs3)cc(C(F)(F)F)n2n1 [SN00794266] | 18.7% | –
61 | Cc1cccc(-c2noc(Cn3cccn3)n2)c1 [SN00782358] | 0.0% | –
62 | CN(C)C(=O)c1ccc(OC2CCN(C(=O)c3ccco3)CC2)nc1 [SN00800077] | 13.6% | –
63 | CCCCn1c(=O)[nH]c(=O)c2c1nc(-c1ccc(-c3cccc([N+](=O)[O-])c3)o1)n2CC [SN00775781] | 37.2% | –
64 | O=C(c1ccccc1)N1CCN(c2cc(-c3ccc(Cl)cc3)n[nH]2)CC1 [SN00800335] | 14.4% | –
65 | CCCCCCNC(=O)Cc1c(C)nc2c(-c3ccccc3)c(C)nn2c1C [SN00785656] | 17.0% | –
66 | CCc1noc2nc(C)nc(N3CCCC(C(=O)O)C3)c12 (stereo not drawn) [SN00785300] | 0.0% | –
67 | Cc1c(C)n(-c2ccccc2)c2ncnc(N3CCC(C)CC3)c12 [SN00789013] | 35.2% | –
68 | COc1ccc(-c2c(C(=O)Nc3cccc(Cl)c3)nn3c(C)cc(=O)[nH]c23)cc1 [SN00795279] | 7.0% | –
69 | Cc1c(C(=O)Nc2cc(-c3ccncc3)n[nH]2)cccc1[N+](=O)[O-] [SN00776775] | 37.2% | Average % Inhibition 24h: 6.4%; % Inhibition n=1 24h: 12.8%; % Inhibition n=2 24h: 0.0%; Average % Inhibition 48h: 21.4%; % Inhibition n=2 48h: 5.6%
70 | CCc1nccn1CC1CCCN1 (stereo not drawn) [SN00772783] | 0.0% | –
71 | CCc1nn(CC)c(=O)c2cc(S(=O)(=O)N3CCOCC3)cn12 [SN00800228] | 11.8% | –
72 | Cc1cccc(NC(=O)CN2CC(c3ccccc3)CC2=O)c1 (stereo not drawn) [SN00784702] | 10.4% | –
73 | COc1ccc(-c2ncc3c(n2)CCN(C(=O)c2ccccc2C(F)(F)F)C3)cc1 [SN00799000] | 0.0% | –
74 | CCc1ccc(CNC(=O)c2c[nH]nc2-c2ccc(Cl)cc2)cc1 [SN00791699] | 7.3% | –

Reference: publication PMC9775191, “A Subset Screen of the Compounds Australia Scaffold Library Identifies 7-Acylaminodibenzoxazepinones as Potent and Selective Hits for Anti-Giardia Drug Discovery” (Biomedicines, 2022)
